Data published in BindingDB's records for doi:10.1021/jm030272n (Procter & Gamble Pharmaceuticals, 2003).

Legend:
[1] = molecular target: DNA gyrase (Escherichia coli); assay: Inhibition effect on Escherichia coli Wild Type DNA gyrase Supercoiling activity
[2] = molecular target: DNA gyrase (Escherichia coli); assay: Inhibition of Escherichia coli Quinolone resistant gyrase Supercoiling activity

N[C@H]1CCCN(c2c(F)cc3c(=O)c(C(=O)O)cn(C4CC4)c3c2F)C1
IC50 [1]: 8.8 µM | IC50 [2]: 71.5 µM
